Assay results from patent publication US20100280085A1, “CHEMICAL COMPOUNDS” (SYNGENTA CROP PROTECTION, INC., priority 2006, published 2010).
Read-outs that look alike come from different tables or passages of the source.

Legend:
[1] = test system: Myzus persicae (Green peach aphid); test: Myzus persicae sunflower leaf disc spray test; type: in vivo; conditions: foliar, 144 h, read-out: control of Myzus persicae
Method: (§1) This Example illustrates the pesticidal/insecticidal properties of compounds of formula (I). The compounds numbers are those of the characterising data tables. Test against were performed as follows:
Heliothis virescens (Tobacco budworm): Eggs (0-24 h old) were placed in 24-well microtiter plate on artificial diet and treated with test solutions at an application rate of 200 ppm by pipetting. After an incubation period of 4 days, samples were checked for egg mortality, larval mortality, and growth regulation. The following compounds gave at least 80% control of Heliothis virescens: 1.004, 1.005, 1.012, 1.016, 4.001, 31.016, 31.018. Myzus persicae (Green peach aphid): Sunflower leaf discs were placed on agar in a 24-well microtiter plate and sprayed with test solutions at an application rate of 200 ppm. After drying, the leaf discs were infested with an aphid population of mixed ages. After an incubation period of 6 DAT, samples were checked for mortality.

[2] = test system: Myzus persicae (Green peach aphid); test: Myzus persicae test, roots of infested pea seedlings placed in test solution; type: in vivo; conditions: 144 h, read-out: control of Myzus persicae
Method: as §1
Myzus persicae (Green peach aphid): Roots of pea seedlings, infested with an aphid population of mixed ages, were placed directly in the test solutions of 24 ppm. 6 days after introduction, samples were checked for mortality.

[3] = roots of pea seedlings in test solutions of 24 ppm, mixed ages, mortality after 6 days
[4] = sunflower leaf discs sprayed at 200 ppm, mixed ages, mortality at 6 DAT

Compound: COc1ccc2c(c1)CCC2NC1=NCCO1 (stereo not drawn)
- melting point: 115 to 118 °C

Compound: COc1cc2c(cc1OC)C(NC1=NCCO1)CC2 (stereo not drawn)
- melting point: 109 to 113 °C

Compound: c1ccc(C2CC(NC3=NCCO3)c3ccccc32)cc1 (stereo not drawn)
- melting point: > 120 °C (dec.)

Compound: O=C(NCCCl)NC1CCc2ccccc21 (racemic) [Compound 31.017]
- pest or weed control at 200 ppm [1]: ≥ 80%
- pest or weed control at 24 ppm [2]: ≥ 80%

Compound: OC1Cc2ccccc2C1NC1=NCCO1 (stereo not drawn) [1.013]
- melting point: 139 to 141 °C

Compound: OC1Cc2ccccc2C1NC1=NCCO1 (stereo not drawn) [1.014]
- melting point: 140 to 142 °C

Compound: CC1Cc2ccccc2C1NC1=NCCO1 (stereo not drawn) [Compound 1.001]
- pest or weed control at 24 ppm [2, 3]: ≥ 80%

Compound: CC1CC(NC2=NCCO2)c2ccccc21 (stereo not drawn) [Compound 1.002]
- pest or weed control at 200 ppm [1, 4]: ≥ 80%
- pest or weed control at 24 ppm [2, 3]: ≥ 80%

Compound: Cc1cccc2c1CCC2NC1=NCCO1 (stereo not drawn) [Compound 1.004]
- pest or weed control at 200 ppm [1, 4]: ≥ 80%
- pest or weed control at 24 ppm [2, 3]: ≥ 80%

Compound: Fc1ccc2c(c1)CCC2NC1=NCCO1 (stereo not drawn) [Compound 1.005]
- pest or weed control at 200 ppm [1, 4]: ≥ 80%

Compound: Brc1ccc2c(c1)CCC2NC1=NCCO1 (stereo not drawn) [Compound 1.006]
- pest or weed control at 200 ppm [1, 4]: ≥ 80%

Compound: Clc1ccc2c(c1)CCC2NC1=NCCO1 (stereo not drawn) [Compound 1.007]
- pest or weed control at 200 ppm [1, 4]: ≥ 80%

Compound: COc1ccc2c(c1)C(NC1=NCCO1)CC2 (stereo not drawn) [Compound 1.009]
- pest or weed control at 200 ppm [1, 4]: ≥ 80%

Compound: Cc1ccc2c(c1)CCC2NC1=NCCO1 (stereo not drawn) [Compound 1.010]
- pest or weed control at 200 ppm [1, 4]: ≥ 80%
- pest or weed control at 24 ppm [2, 3]: ≥ 80%

Compound: Cc1ccc2c(c1)C(NC1=NCCO1)CC2 (stereo not drawn) [Compound 1.012, (4,5-Dihydro-oxazol-2-yl)-(6-methyl-indan-1-yl)-amine]
- pest or weed control at 200 ppm [1, 4]: ≥ 80%
- pest or weed control at 24 ppm [2, 3]: ≥ 80%

Compound: CC1Cc2ccccc2C1NC1=NCCO1 (stereo not drawn) [Compound 1.015]
- pest or weed control at 200 ppm [1, 4]: ≥ 80%

Compound: Fc1cccc2c1CCC2NC1=NCCO1 (stereo not drawn) [Compound 1.016]
- pest or weed control at 200 ppm [1, 4]: ≥ 80%
- pest or weed control at 24 ppm [2, 3]: ≥ 80%

Compound: c1ccc2c(c1)CCC2NC1=NCCO1 (stereo not drawn) [Compound 1.017]
- pest or weed control at 200 ppm [1, 4]: ≥ 80%
- pest or weed control at 24 ppm [2, 3]: ≥ 80%

Compound: CC1Cc2ccccc2C1NC(=O)NCCCl (stereo not drawn) [Compound 31.001]
- pest or weed control at 200 ppm [1]: ≥ 80%
- pest or weed control at 24 ppm [2]: ≥ 80%

Compound: CC1CC(NC(=O)NCCCl)c2ccccc21 (stereo not drawn) [Compound 31.002]
- pest or weed control at 200 ppm [1]: ≥ 80%
- pest or weed control at 24 ppm [2]: ≥ 80%

Compound: O=C(NCCCl)NC1CCc2c(F)cccc21 (stereo not drawn) [Compound 31.016]
- pest or weed control at 200 ppm [1]: ≥ 80%
- pest or weed control at 24 ppm [2]: ≥ 80%

Compound: O=C(NCCCl)NC1CCc2ccccc21 (stereo not drawn) [Compound 31.018]
- pest or weed control at 200 ppm [1]: ≥ 80%
- pest or weed control at 24 ppm [2]: ≥ 80%
